For eight molecules, MIC, HC50 and HC10 results are on record in ChEMBL document CHEMBL5608163, “Structure modification of anoplin for fighting resistant bacteria” (Eur J Med Chem, 2024).

The structures appear in SMILES notation. ≈ marks a conversion by molar mass, not a printed value. Peptide text beside a SMILES is read from it.

Data set [1] deals with Escherichia coli. The data set can be described thus: Antibacterial activity against Escherichia coli assessed as reduction in bacterial growth incubated for 20 hrs by broth microdilution assay. Format: functional.
The nature of data set [2]: Hemolytic activity against Red blood cells (unknown origin) incubated for 1 hr by spectrophotometric analysis. Format: toxicity, cell-based, Erythrocyte.
For data set [3], the system named is Staphylococcus aureus. The data set can be described thus: Antibacterial activity against Staphylococcus aureus assessed as bacterial growth inhibition incubated for 20 hrs by broth microdilution assay. Type of data set: functional. On the technique in general: Broth dilution looks for growth in wells or tubes with falling amounts of substance.
In data set [4] the test system is Pseudomonas aeruginosa. The data set can be described thus: Antibacterial activity against Pseudomonas aeruginosa assessed as reduction in bacterial growth incubated for 20 hrs by broth microdilution assay. Type of data set: functional.
The subject of data set [5] is Bacillus subtilis. The data set can be described thus: Antibacterial activity against Bacillus subtilis assessed as reduction in bacterial growth incubated for 20 hrs by broth microdilution assay. Format: functional.
For another data set, the system named is Erythrocyte. As to the kind of experiment: Hemolytic activity in erythrocytes (unknown origin). Format: toxicity, cell-based.
Data set [6] relates to Staphylococcus aureus. The data set can be described thus: Antibacterial activity against methicillin resistant Staphylococcus aureus ATCC 33591 assessed as inhibition of bacterial growth incubated for 16 to 20 hrs by broth micro-dilution method. Type of data set: functional. The following applies: time 16-20 hrs.
In a further data set the test system is Enterococcus faecium. As to the kind of experiment: Antibacterial activity against Vancomycin resistant Enterococcus faecium ATCC 700221 assessed as inhibition of bacterial growth incubated for 16 to 20 hrs by broth micro-dilution method. Type of data set: functional. Particulars: time 16-20 hrs.
In a further data set the test system is Zymomonas mobilis. The data set can be described thus: Antibacterial activity against Zymomonas mobilis ATCC 10988 assessed as reduction in bacterial growth incubated for 24 hrs by broth micro-dilution method. Format: functional.
The subject of data set [7] is Escherichia coli. The data set can be described thus: Antibacterial acitivity against Escherichia coli DH5a assessed as bacterial growth inhibition incubated for 24 hrs by broth micro-dilution method. Format: functional.
The test system of data set [8] is Mycolicibacterium smegmatis. As to the kind of experiment: Antimycobacterial activity against Mycobacterium smegmatis mc2 155 assessed as reduction in bacterial cell growth incubated for 24 hrs by resazurin dye based broth microdilution method. Type of data set: functional. (Resazurin is reduced to fluorescent resorufin, in cell work by metabolically active cells.)

Data set [9] can be described thus: Hemolytic activity against human Red blood cells assessed as cell lysis. Format: toxicity, cell-based, Erythrocyte.
For data set [10], the system named is Bacillus subtilis. As to the kind of experiment: Antimicrobial activity against Bacillus subtilis assessed as microbial growth inhibition incubated for 24 hrs by broth micro-dilution method. Format: functional.
In data set [11] the test system is Pseudomonas aeruginosa. As to the kind of experiment: Antimicrobial activity against Pseudomonas aeruginosa assessed as inhibition of microbial growth incubated for 24 hrs by microdilution method. Type of data set: functional.

Turning to `CC[C@H](C)[C@H](NC(=O)CCCCCNC(=O)[C@H](CC(C)C)NC(=O)[C@H](CC(C)C)NC(=O)[C@@H](NC(=O)[C@H](CCCCN)NC(=O)[C@@H](NC(=O)[C@H](CCCNC(=N)N)NC(=O)[C@H](CCCCN)NC(=O)[C@H](CC(C)C)NC(=O)[C@H](CC(C)C)NC(=O)CN)[C@@H](C)CC)[C@@H](C)O)C(=O)N[C@@H](CC(N)=O)C(=O)N[C@@H](CC(C)C)C(=O)N[C@@H](CCCCN)C(=O)N[C@@H](C)C(=O)N[C@@H](CC(C)C)C(=O)N[C@@H](C)C(=O)N[C@@H](C)C(=O)N[C@@H](CC(C)C)C(=O)N[C@@H](C)C(=O)N[C@@H](CCCCN)C(=O)N[C@@H](CCCCN)C(=O)N[C@H](C(=O)N[C@@H](CC(C)C)C(N)=O)[C@@H](C)CC`, the MIC (in general, the lowest concentration found to suppress growth) with Escherichia coli [1] was 2 µM (≈ 5.46 µg/mL); in the data set on Staphylococcus aureus [3] it was 4 µM (≈ 10.9 µg/mL); with Pseudomonas aeruginosa [4], 2 µM (≈ 5.46 µg/mL); in the data set on Bacillus subtilis [5], 2 µM (≈ 5.46 µg/mL). Also, the concentration for 50% haemolysis (HC50) (usually the concentration that lyses half of the red blood cells) at 1 h in [2] came out at 60.2 µM.

On to `CC(C)C[C@H](NC(=O)CN)C(=O)N[C@@H](CC(C)C)C(=O)N[C@@H](CCCCN)C(=O)N[C@@H](CCCNC(=N)N)C(=O)N[C@H](Cc1ccc2ccccc2c1)C(=O)N[C@@H](CCCCN)C(=O)N[C@H](C(=O)N[C@@H](CC(C)C)C(=O)N[C@@H](CC1CCCCC1)C(N)=O)[C@@H](C)O`, for which the HC10 with Erythrocyte was determined as 74.3 µM. Also, the MIC is 28.4 µM (≈ 36.3 µg/mL) in the data set with Staphylococcus aureus [6] and 3.2 µM (≈ 4.09 µg/mL) in the data set on Enterococcus faecium.

Regarding `CC[C@@H](C)[C@@H](NC(=O)[C@H](CCCCN)NC(=O)[C@H](CCCCN)NC(=O)[C@H](CC(C)C)NC(=O)[C@H](CC(C)C)NC(=O)CN)C(=O)N[C@@H](CCCCN)C(=O)N[C@H](C(=O)N[C@@H](CC(C)C)C(=O)N[C@@H](CC(C)C)C(N)=O)[C@@H](C)O`, the HC10 in the data set with Erythrocyte worked out at 7209 µM. For the same molecule, the MIC came out at 1020 µM (≈ 1150 µg/mL) in the data set on Staphylococcus aureus [6] and 492 µM (≈ 554 µg/mL) in the data set with Enterococcus faecium.

`CC[C@@H](C)[C@@H](NC(=O)[C@H](CCCCN)NC(=O)[C@H](CCCCN)NC(=O)[C@H](CC(C)C)NC(=O)[C@H](CC(C)C)NC(=O)CN)C(=O)N[C@@H](CCCCN)C(=O)N[C@@H](CCCCN)C(=O)N[C@@H](CC(C)C)C(=O)N[C@@H](CC(C)C)C(N)=O` displayed an HC10 in the data set with Erythrocyte of 1962.4 µM. For the same molecule, the MIC is 1020 µM (≈ 1180 µg/mL) in the data set with Staphylococcus aureus [6] and 341 µM (≈ 393 µg/mL) with Enterococcus faecium.

As for `CC[C@@H](C)[C@@H](NC(=O)[C@H](CCCNC(=N)N)NC(=O)[C@H](CCCCN)NC(=O)[C@H](CC(C)C)NC(=O)[C@H](CC1CCCCC1)NC(=O)CN)C(=O)N[C@@H](CCCCN)C(=O)N[C@H](C(=O)N[C@@H](CC(C)C)C(=O)N[C@@H](CC1CCCCC1)C(N)=O)[C@@H](C)O`, in the data set on Erythrocyte, the HC10 amounted to 225.6 µM.

In the data set with Erythrocyte, `CC(C)C[C@H](NC(=O)[C@H](CC(C)C)NC(=O)[C@H](CCCCN)NC(=O)[C@H](CCCCN)NC(=O)[C@@H](Cc1ccc2ccccc2c1)NC(=O)[C@H](CCCNC(=N)N)NC(=O)[C@H](CCCCN)NC(=O)[C@H](CC(C)C)NC(=O)[C@H](CC1CCCCC1)NC(=O)CN)C(=O)O` yielded an HC10 of 27 µM. Also, the MIC with Staphylococcus aureus [6] worked out at 9.5 µM (≈ 12.4 µg/mL); in the data set on Enterococcus faecium, 3.2 µM (≈ 4.18 µg/mL).

With `CC[C@H](C)[C@H](NC(=O)[C@H](CCCCN)NC(=O)[C@H](CCCCN)NC(=O)[C@H](CC(C)C)NC(=O)[C@H](CC(C)C)NC(=O)CN)C(=O)N[C@@H](CCCCN)C(=O)N[C@@H](CCCNC(=N)N)C(=O)N[C@@H](CC(C)C)C(=O)N[C@@H](CC(C)C)C(N)=O` (H-GLLKKIKRLL-NH2), the MIC is 4.2 µM (≈ 4.96 µg/mL) in the data set on Zymomonas mobilis; 170 µM (≈ 200 µg/mL) in the data set with Escherichia coli [7]; 0.9 µM (≈ 1.06 µg/mL) in [8]; 170 µM (≈ 200 µg/mL) with Bacillus subtilis [10]; 5.9 µM with Pseudomonas aeruginosa [11]. The HC50 in data set [9] was > 170 µM.

As to `CC[C@H](C)[C@H](NC(=O)[C@H](CCCCN)NC(=O)[C@H](CCCCN)NC(=O)[C@H](C)NC(=O)[C@H](CC(C)C)NC(=O)[C@H](C)NC(=O)[C@H](C)NC(=O)[C@H](CC(C)C)NC(=O)[C@H](C)NC(=O)[C@H](CCCCN)NC(=O)[C@H](CC(C)C)NC(=O)[C@H](CC(N)=O)NC(=O)[C@@H](NC(=O)[C@H](CC(C)C)NC(=O)[C@H](CC(C)C)NC(=O)[C@H](CC(C)C)NC(=O)[C@@H](NC(=O)[C@H](CCCCN)NC(=O)[C@@H](NC(=O)[C@H](CCCNC(=N)N)NC(=O)[C@H](CCCCN)NC(=O)[C@H](CC(C)C)NC(=O)[C@H](CC(C)C)NC(=O)CN)[C@@H](C)CC)[C@@H](C)O)[C@@H](C)CC)C(=O)N[C@@H](CC(C)C)C(N)=O` (H-GLLKRIKTLLLINLKALAALAKKIL-NH2), the MIC worked out at 8 µM (≈ 21.8 µg/mL) in the data set with Escherichia coli [1], 8 µM (≈ 21.8 µg/mL) in the data set with Staphylococcus aureus [3], 16 µM (≈ 43.7 µg/mL) in the data set on Pseudomonas aeruginosa [4] and 8 µM (≈ 21.8 µg/mL) in the data set on Bacillus subtilis [5]. The molecule further registered a 50% haemolytic concentration (HC50) at 1 h in data set [2] of 35.6 µM.
